Results as given in article PMC6409689, “Characteristics of the First Protein Tyrosine Phosphatase with Phytase Activity from a Soil Metagenome” (Genes, 2019).

Tests used:
Pho16B = Pho16B (uncultured organism, UniProt A0A3G1QTG4); test: phosphate release, ammonium molybdate assay at […] nm; Michaelis-Menten fit; conditions: pH 5.6, 45 °C; printed kcat, Km and kcat/Km do not agree
[1] = test system: O=[N+]([O-])c1ccc(OP(=O)(O)O)cc1; test: purified protein; conditions: pH 5.6, 45 °C, printed kcat, Km and kcat/Km do not agree

Chain of Pho16B (A0A3G1QTG4 1-376): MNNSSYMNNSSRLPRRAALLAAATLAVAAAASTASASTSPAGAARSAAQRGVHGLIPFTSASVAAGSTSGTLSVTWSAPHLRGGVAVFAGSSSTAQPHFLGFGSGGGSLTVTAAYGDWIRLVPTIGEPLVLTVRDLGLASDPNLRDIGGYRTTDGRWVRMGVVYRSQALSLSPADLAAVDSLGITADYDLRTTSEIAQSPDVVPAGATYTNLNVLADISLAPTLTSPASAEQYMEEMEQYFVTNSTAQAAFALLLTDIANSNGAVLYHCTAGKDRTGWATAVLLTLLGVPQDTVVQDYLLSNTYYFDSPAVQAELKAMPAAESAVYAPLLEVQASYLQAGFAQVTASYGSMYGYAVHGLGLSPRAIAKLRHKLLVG

Row | Substance | Km (Pho16B) | Km [1]
1 | Naphthyl phosphate | 966 ± 180 µM | –
2 | Pho16B (uncultured organism) | – | 1026 ± 140 µM
